The conditions of series [1]: humans; cited from earlier work.
Series [2] can be described thus: Stability of Re complex in aqueous solution by ^1H NMR. The class given is physicochemical. The conditions noted are these: D2O, pH 7.

As to `O=C([O-])CN=C([O-])CN=C([O-])CN=C([O-])C[S-].[O-2].[Tc+4]` [^99mTc-MAG3, ^99mTc-mercaptoacetyltriglycine], in series [1], the “clearance as percent of that of ^131I-OIH” value is given as ~ 60%. Na[Re(CO)3(FEDA)] [Re-4]: the “stability in aqueous solution (^1H NMR signals)” value in series [2] is “no change for weeks”.

The record behind these values is publication PMC5340577 (Nuclear medicine and biology, 2016).
